Reference: patent publication US9981037B2, “Combination therapy of beta-glycolipids and antibodies for the treatment of immune-related disorders” (HADASIT MEDICAL RESEARCH SERVICES AND DEVELOPMENT LTD., priority 2008, dated 2018)

Legend:
[1] = system: Peripheral blood lymphocytes; experiment: Proliferation of peripheral blood lymphocytes stimulated in vitro with anti-CD3 antibody; format: in vivo, human
Experimental: Nine subjects (3/group) were orally administered 0.2 mg, 1.0 mg or 5.0 mg of OKT3 daily for 5 days and immune parameters measured on days 5, 10 and 30 days (FIG. 12). Six subjects (3/group) received 7.5 mg of beta glucosylceramide in combination with 0.2 mg or 1.0 mg of OKT3 and 3 subjects received GC alone. All subjects were treated with 20 mg of Omeprazole (a proton pump inhibitor) during the 5 days of dosing. Dosing occurred in the morning before breakfast at the study site following a 8 hours fast. PBMCs were isolated from blood samples using Ficol Hypaque solution. To measure proliferation, 2×10^5 cells per well were cultured in triplicate in RPMI 1640 medium with 5% FBS (Biological Industries, Israel), 100 units/ml penicillin, 100 µg/ml streptomycin, 1% Glutamine, 1% non essential […], 1% sodium pyruvate and β-mercapto-ethanol (Biological Industries, Israel). Cells were stimulated with pre-coated antibodies (in 200 μl PBS/well):μg/well of anti OKT-3 mAb (Ortho Biotech Inc, New Jersey, USA) or 5 μg/ml soluble anti-CD3 mAb (eBioscience, CA, USA) or 2.5 μg/ml anti-CD28 mAb (R&D systems, MN, USA). One set of the above wells were added nothing while 10 μg of GC was added to a similar set for 72 h in culture at 37° C. with 5% CO2. Supernatants were collected for IL-13, IL-17 and IFN-γ. Enzyme-linked immunosorbent assays for these cytokines were performed according to the manufacturer's protocol (R&D Systems, Minneapolis, Minn.). For TGF-β, 2×10^5 cells per well were cultured in serum free media (Biotarget, Biological Industries, Israel). After collecting the supernatants, 1 µCi [^3H]thymidine (Amersham Biosciences, UK) was added to each well, and cells were harvested 18 h later. Proliferation was measured by scintillation counting. Unlike what has been reported for treatment with IV anti-CD3 (which is also given at a dose of 5 mg per day for five days), no decrease in the CD3+ lymphocyte counts or modulation of CD3 from the T cell surface was observed. […] An identical pattern was observed when results were calculated as stimulation indices.

IgG and IgM repertoire = experiment: Antigen microarrays of serum IgG and IgM reactivities; format: in vivo, human
Source text: A panel of self and non-self proteins, peptides and lipids were spotted onto Epoxi slides (TeleChem, CA, USA) as described [Quintana, F. J. et al. Proc. Natl. Acad. Sci. USA 101 Suppl 2:14615-14621 (2004)]. Since several of the self-antigens included in the antigen microarrays used by the invention, are targeted by natural antibodies [Coutinho, A. et al. Curr. Opin. Immunol. 7:812-818 (1995); Quintana, F. J. and Cohen, I. R. Biomed Pharmacother 58:276-281 (2004)], the inventors could detect both the up and the down-regulation of preexisting IgG and IgM reactivities. Sera from OKT3-treated subjects were assayed at a 1/10 dilution and the IgG or IgM reactivities displaying significant changes upon treatment were identified. Briefly, antigens were spotted in replicates of 6, the microarrays were blocked for 1 h at 37° C. with 1% bovine serum albumin, and incubated for 2 hr at 37° C. with a 1:200 dilution of the test serum in blocking buffer. The arrays were then washed and incubated for 45 minutes at 37° C. with a 1:500 dilution of detection antibodies: a goat […] Cy3-conjugated antibody or a goat anti-mouse IgM Cy5-conjugated antibody (Jackson ImmunoResearch, West Grove, Pa.). The arrays were scanned with a ScanArray 4000× scanner (GSI Luminomics, Billerica, Mass., USA) and the IgM and IgG results were recorded separately.
Raw data were normalized and analyzed using the GeneSpring software (Silicon Genetics, Redwood City, Calif.). Antigen reactivity was defined by the mean intensity of binding to the replicates of that antigen on the microarray. The data were analyzed with the Wilcoxon rank-sum test, a non-parametric test robust to outliers, using the Benjamini and Hochberg false discovery method with a p-value of 0.2 to determine significance [Stekel, D. Microarray Bioinformatics. Cambridge University Press, Cambridge (2003)]. To perform the hierarchical clustering of the antibody reactivities a pair wise average linkage algorithm based on Pearson's correlation was used as a distance measure [Stekel (2003) ibid.]
Antigen microarrays constitute a new tool for studying the immune system in health [Quintana, F. J. and Cohen, I. R. Biomed Pharmacother 58:276-281 (2004); Merbl, Y. et al. Clin. Invest. 117:712-718 (2007); Quintana, F. J. et al. J. Autoimmun. 21:65-75 (2003)] and disease [Goldschmidt, Y. et al. Technical Report MCS03-071-018 (2003); Hueber, W. et al. Arthritis Rheum. 52:2645-2655 (2005)]. The inventors therefore used an antigen microarray containing a broad panel of antigens that included self and non self proteins, heat shock proteins, and infectious agents to investigate the effects of oral OKT3 on the immune repertoire. Both increases and decreases of immunoglobulin reactivities were measured.
No changes occurred in the IgM repertoire.

OKT3: murine monoclonal anti-CD3 antibody (Orthoclone OKT-3, Ortho Biotech)
subjects with increase in proliferation that peaked at day five ([1]; 0.2 mg oral): one subject
subjects with increase in proliferation that peaked at day five ([1]; 1.0 mg oral daily for 5 days, three subjects): all three subjects
subjects with increase in proliferation that peaked at day five ([1]; 5 mg oral): two subjects
IgG reactivities affected (IgG and IgM repertoire; 0.2 mg dose): 4
IgG reactivities affected (IgG and IgM repertoire; 1.0 mg dose): 37
downregulated IgG reactivities (IgG and IgM repertoire; 1.0 mg dose): 19
up regulated IgG reactivities (IgG and IgM repertoire; 1.0 mg dose): 18
downregulated IgG reactivities (IgG and IgM repertoire; 5 mg dose): 18
up-regulated IgG reactivities (IgG and IgM repertoire; 5 mg dose): 47
IgG reactivities affected (IgG and IgM repertoire; 5.0 mg dose): 65
changes in the IgM repertoire (IgG and IgM repertoire; oral OKT3): No changes
